Measured values reported in patent EP0866709B1, “1,2,4-BENZOTRIAZINE OXIDES FORMULATIONS” (priority 1995, dated 1997).
≈ marks a conversion by molar mass, not a printed value. Like-named read-outs stand apart in the source and are kept apart here.

What was measured:
hypoxic cells [1] = conditions: Human; in vitro; drug concentration required under aerobic vs. hypoxic conditions for equivalent cell killing; cited from earlier work
hypoxic cells [2] = conditions: cited from earlier work
mouse tumor models = experiment: Tirapazamine with radiation in vivo
[3] = Degradation on refluxing in 0.1 N sodium hydroxide; type: physicochemical
mouse tumors = experiment: Tirapazamine alone in vivo, tumor cell kill; set-up: species or system mice; conditions: given without radiation; typical
Text: (§1) . When given alone in vivo in mice, tirapazamine-in single doses-would be expected to produce a relatively small cell kill corresponding to the percentage of tumor cells which are hypoxic. A number of experiments have shown this to be the case, with cell kills typically less than one log (surviving fraction ≥ 1•10^-1). For example, the maximum cell kill observed following a single does was in the SCCVII tumor (surviving fraction = 5•10^-1), and only a small tumor growth delay of 3 days was produced in the FSaIIC fibrosarcoma.
[…]. However, the lowest surviving fraction seen in four different mouse tumors was 5•10^-1, and down to 5•10^-2 in a fifth mouse tumor (RIF-1 tumor).

[4] = test system: FSaIIC Murine Fibrosarcoma; conditions: administered just before single-dose treatment with cyclophosphamide, carmustine or melphalan; cited from earlier work
RIF-1 = experiment: In vitro cytotoxicity under aerobic or hypoxic conditions; type: cell-based; conditions: Mus musculus; RIF-1 (tumor); 1-hour incubation under hypoxic conditions
A549 = experiment: as above; type: cell-based; conditions: Homo sapiens; A549 (tumor); 1-hour incubation under hypoxic conditions
SCCVII = experiment: as above; type: cell-based; conditions: Mus musculus; SCCVII (tumor); 1-hour incubation under hypoxic conditions
rat = experiment: Single and 2-week and 2-month multiple-dose studies; type: in vivo; conditions: each regimen (single, 2-week, 2-month multiple-dose)
Procedure: (§2) Single and 2-week and 2-month multiple-dose studies were performed in the rat and the dog.

dog = experiment: as above; type: in vivo; conditions: each regimen (single, 2-week, 2-month multiple-dose)
Procedure: as §2

HCT-8 = experiment: In vitro cytotoxicity under aerobic or hypoxic conditions; type: cell-based; conditions: Homo sapiens; HCT-8 (tumor); 1-hour incubation under hypoxic conditions
[5] = type: physicochemical
Text: […]. The planar nature of the molecule would facilitate an ordered stacking with the crystal with intermolecular attractions (charge transfer interactions) between each plane via the nitrogen and oxygen of the N-oxide functions. A hydrated form of tirapazamine can exist where water molecules are hydrogen bonded to the oxygen components.

FSaIIC fibrosarcoma [6] = experiment: Tirapazamine alone in vivo; set-up: species or system mice
Text: as §1, with “When” for “. When”

[7] = Stress stability on storage at 50°C and 70°C after a single autoclave cycle; type: physicochemical
Procedure: Formulations were also stressed by storing at elevated temperatures of 50°C and 70°C after a single autoclave cycle of 21 minutes at 121°C. […] This instability was not apparent from multiple autoclave stressing.
The clinical formulation used in chemical studies discussed later was as follows: […]

in vivo = conditions: mouse
HT 1080 = experiment: In vitro cytotoxicity under aerobic or hypoxic conditions; type: cell-based; conditions: Homo sapiens; HT 1080 (tumor); 1-hour incubation under hypoxic conditions
[8] = phosphate buffer at pH 7.4; cited from earlier work
[9] = Stress stability study, multiple autoclave cycles of 21 minutes at 121°C; type: physicochemical
Procedure: Stress studies were conducted using multiple autoclave cycles of 21 minutes at 121°C. […] A shift in the normal saline formulation pH occurred after eight autoclave cycles from 4.5 to 4.9, therefore formulations required some degree of buffering.

FSaIIC fibrosarcoma [10] = experiment: Tirapazamine with chemotherapy in vivo; set-up: species or system mice; conditions: tirapazamine 50 mg/kg IP added to cyclophosphamide (150 mg/kg IP), melphalan (10 mg/kg IP), or cisplatin (10 mg/kg IP)
AG 1522 = experiment: In vitro cytotoxicity under aerobic or hypoxic conditions; type: cell-based; conditions: Homo sapiens; AG 1522 (normal); 1-hour incubation under hypoxic conditions
CHO-HA-1 = experiment: as above; type: cell-based, Hamster; conditions: CHO-HA-1 (normal); 1-hour incubation under hypoxic conditions
[11] = Solubility of tirapazamine in water and various vehicles; type: physicochemical
mouse SCCVII tumors = experiment: Tirapazamine with fractionated radiation in vivo; conditions: multiple 0.08 mmol/kg (43 mg/m^2) doses given prior to each radiation fraction (2.5 Gy x 8)
[12] = Rodent, in vitro, drug concentration required under aerobic vs. hypoxic conditions for equivalent cell killing

COCC(O)Cn1ccnc1[N+](=O)[O-] (centres unmarked) [Misonidazole]
Hypoxic Cytotoxicity Ratio (hypoxic cells [1]): 15 | Hypoxic Cytotoxicity Ratio (hypoxic cells [2]; [12]): 10-15

CN(C)CCCNc1c2ccccc2nc2cccc([N+](=O)[O-])c12 [Nitracrine]
Hypoxic Cytotoxicity Ratio (hypoxic cells [2]): 7

CO[C@@]12[C@H](COC(N)=O)C3=C(C(=O)C(C)=C(N)C3=O)N1C[C@H]1[C@@H]2N1C (some centres unmarked) [Porfiromycin]
Hypoxic Cytotoxicity Ratio (hypoxic cells [1]): ~10 | Hypoxic Cytotoxicity Ratio (hypoxic cells [2]; [12]): 5-10

Nc1n[n+]([O-])c2ccccc2[n+]1[O-] [Tirapazamine, 1,2,4-benzotriazine-3-amine 1,4-dioxide]
antitumor effect of tirapazamine plus radiation versus additive effect (mouse tumor models; one study): exceeds the additive effect of these two treatments | enhancement of the antitumor activity of radiation, compared with etanidazole (mouse tumor models; one study): to a greater extent than did the hypoxic cell sensitizer etanidazole | effectiveness with fractionated radiation (mouse tumor models; single 0.30 mmol/kg (160mg/m^2) dose versus multiple 0.08 mmol/kg (43 mg/m^2) doses, fractionated radiation (2.5 Gy x 8)): equally effective | effectiveness with single-dose radiation (mouse tumor models; single 0.30 mmol/kg (160mg/m^2) dose with a single large (20 Gy) dose of radiation): effective | antitumor activity of radiation (cell killing or tumor growth delay) (mouse tumor models; tumors FSaIIC, SCCVII, RIF-1, EMT6, and KHT, single- or multiple-dose schedule, single-dose or fractionated radiation): augments the antitumor activity of radiation | Degradation [3]: complete degradation occurs after refluxing for less than four hours | cell kill (mouse tumors): less than 1 log | dose enhancement of alkylating agents [4]: marked dose enhancement leading to synergistic cytotoxic effects on tumor cells | IC50 (RIF-1): 3 µM | IC50 (A549): 15 µM | IC50 (SCCVII): 4 µM | Clinical signs and symptoms (rat): salivation, decreases in white blood cell measurements (including lymphocyte count in the dog), and decreases in red blood cell measurements | Clinical signs and symptoms (dog): salivation, decreases in white blood cell measurements (including lymphocyte count in the dog), and decreases in red blood cell measurements | IC50 (HCT-8): 10 µM | partition coefficient (octanol/water) [5]: 0.15 | direct tumor cell killing (FSaIIC fibrosarcoma [6]; 25 to 75 mg/kg IP, mice bearing the FSaIIC fibrosarcoma): some direct tumor cell killing was observed | tumor growth delay (FSaIIC fibrosarcoma [6]; alone, single dose, FSaIIC fibrosarcoma): 3 days | Stability ([7]; 0.7 mg/ml in 0.005M citrate buffer pH 4.0, 2 months at 50°C): stable | Stability ([7]; 0.7 mg/ml in 0.05M citrate buffer pH 4.0, 2 months at 50°C): stable | Stability ([7]; 0.7 mg/ml in 0.05M citrate buffer pH 4.0, at 70°C): evidence of instability | Stability ([7]; 0.05M citrate pH 4, compared with the other formulations stressed): most stable formulation | Stability ([7]; lactate buffer, storage at 70°C after a single autoclave cycle): unstable | LD50 (in vivo): 101 mg/kg | IC50 (HT 1080): 22 µM | Stability [8]: stable | Stability ([9]; acidic solutions of normal saline or solutions buffered to pH 4 using 0.05M citrate or 0.1 M lactate buffer): more stable | Stability ([9]; citrate buffer at pH 6): unstable | Stability ([9]; phosphate buffer at pH 5.9): unstable | increases in tumor growth delay (FSaIIC fibrosarcoma [10]): 1.6- to 5.3 fold | IC50 (AG 1522): 13 µM | IC50 (CHO-HA-1): 5 µM | solubility ([11]; 1% benzyl alcohol : 10% ethanol : 89% water, v/v, 15 °C, aqueous with cosolvent or surfactant or cyclodextrin, 1% Benzyl alcohol: 10% ethanol:89% water, v/v, 15°C): 1230 µg/mL (≈ 6.9 mM) | solubility ([11]; Albumin 4.5% w/v, 20 °C, plasma or biological fluid): 1330 µg/mL (≈ 7.47 mM) | solubility ([11]; Albumin 20% w/v, 20 °C, plasma or biological fluid): 1710 µg/mL (≈ 9.6 mM) | solubility ([11]; Dimethylformamide 25% v/v in water, 15 °C, aqueous with cosolvent or surfactant or cyclodextrin): 1830 µg/mL (≈ 10.3 mM) | solubility ([11]; Ethanol 10% v/v in water, 15 °C, aqueous with cosolvent or surfactant or cyclodextrin): 930 µg/mL (≈ 5.22 mM) | solubility ([11]; Ethanol 50% v/v in water, 15 °C, aqueous with cosolvent or surfactant or cyclodextrin): 2320 µg/mL (≈ 13 mM) | solubility ([11]; Ethanol 65% v/v in water, 15 °C, aqueous with cosolvent or surfactant or cyclodextrin): 2840 µg/mL (≈ 15.9 mM) | solubility ([11]; Ethanol 85% v/v in water, 15 °C, aqueous with cosolvent or surfactant or cyclodextrin): 1710 µg/mL (≈ 9.6 mM) | solubility ([11]; Ethanol, 15 °C, organic solvent or mixture): 470 µg/mL (≈ 2.64 mM) | solubility ([11]; Glycerol 50% v/v in water, 15 °C, aqueous with cosolvent or surfactant or cyclodextrin): 2930 µg/mL (≈ 16.4 mM) | solubility ([11]; Glycerol, 15 °C, organic solvent or mixture): 4590 µg/mL (≈ 25.8 mM) | solubility ([11]; Normal Saline, 15 °C, saline or isotonic): 850 µg/mL (≈ 4.77 mM) | solubility ([11]; PEG 400 50% v/v in water, 15 °C, aqueous with cosolvent or surfactant or cyclodextrin): 1600 µg/mL (≈ 8.98 mM) | solubility ([11]; PEG 400, 15 °C, organic solvent or mixture): 5120 µg/mL (≈ 28.7 mM) | solubility ([11]; Pluronic F68 20% w/v, 15 °C, aqueous with cosolvent or surfactant or cyclodextrin): 1080 µg/mL (≈ 6.06 mM) | solubility ([11]; Povidone (Kollidon 12PF) 10% w/v, 15 °C, aqueous with cosolvent or surfactant or cyclodextrin): 950 µg/mL (≈ 5.33 mM) | solubility ([11]; Propylene glycol 50% v/v in water, 15 °C, aqueous with cosolvent or surfactant or cyclodextrin): 2580 µg/mL (≈ 14.5 mM) | solubility ([11]; Propylene glycol, 15 °C, organic solvent or mixture): 3270 µg/mL (≈ 18.4 mM) | solubility ([11]; Tween 80 0.2% w/v, 15 °C, aqueous with cosolvent or surfactant or cyclodextrin): 900 µg/mL (≈ 5.05 mM) | solubility ([11]; Tween 80 20% w/v, 15 °C, aqueous with cosolvent or surfactant or cyclodextrin): 1020 µg/mL (≈ 5.73 mM) | solubility ([11]; Water for Injections, 15 °C, water): 850 µg/mL (≈ 4.77 mM) | solubility ([11]; Water for Injections, 20 °C, water): 1430 µg/mL (≈ 8.03 mM) | solubility ([11]; citrate buffer 0.05 M pH 4 (isotonic), 15 °C, pH 4, aqueous buffer): 810 µg/mL (≈ 4.55 mM) | solubility ([11]; lactate buffer 0.1 M pH 4 (isotonic), 15 °C, pH 4, aqueous buffer, Lactate buffer O.1M pH 4 (isotonic)): 900 µg/mL (≈ 5.05 mM) | solubility ([11]; water, in water (text, temperature not given)): ~810 µg/mL (≈ 4.55 mM) | cures (mouse SCCVII tumors): several cures
